Legend:
Assay in all cases: relative viability (nuclei count vs DMSO), 5 days (fraction); higher = more cells survive
[1] = test system: NCI-H1993
Procedure, shortened: (§1)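 Lung cancer cell lines, seeded in 1536-well plates, were treated the following day by pin tool with a single drug or with five library-drug doses (not always all listed) in √10 steps on top of a fixed anchor-drug dose. Cells were fixed and nuclei stained in one step after 5 days, and nuclei were counted. Relative viability is the nuclei count for treated wells divided by that for vehicle wells, reported as medians of duplicate plates.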

[2] = test system: NCI-H596
Procedure, shortened: as §1

[3] = test system: CAL-12T
Procedure, shortened: as §1

[4] = test system: NCI-H2085
Procedure, shortened: as §1

[5] = test system: HCC-366
Procedure, shortened: as §1

[6] = test system: NCI-H2405
Procedure, shortened: as §1

[7] = test system: NCI-H1734
Procedure, shortened: as §1

[8] = test system: NCI-H1623
Procedure, shortened: as §1

[9] = test system: A549
Procedure, shortened: as §1

[10] = test system: NCI-H1703
Procedure, shortened: as §1

[11] = test system: NCI-H1648
Procedure, shortened: as §1

Q: With `COCC1(CO)C(=O)C2CCN1CC2` (stereo not drawn) [PRIMA-1MET] + N=C(N)NC(=N)NCCc1ccccc1 [Phenformin] (partner 250 µM) as the compound, how does the relative viability ([1]; first compound 0.2 µM) read?
A: 0.503

Q: And the relative viability ([1]; first compound 0.6325 µM)?
A: 0.526

Q: What about the relative viability ([1]; first compound 2 µM) of the same compound?
A: 0.496

Q: What about the relative viability ([1]; first compound 6.325 µM) of the same compound?
A: 0.544

Q: And the relative viability ([1]; first compound 20 µM)?
A: 0.57

Q: What about the relative viability ([2]; first compound 0.2 µM) of the same compound?
A: 0.752

Q: What about the relative viability ([2]; first compound 0.6325 µM) of the same compound?
A: 0.794

Q: What about the relative viability ([2]; first compound 2 µM) of the same compound?
A: 0.622

Q: And the relative viability ([2]; first compound 6.325 µM)?
A: 0.891

Q: And the relative viability ([2]; first compound 20 µM)?
A: 0.693

Q: What about the relative viability ([3]; first compound 0.2 µM) of the same compound?
A: 0.52

Q: What about the relative viability ([3]; first compound 0.6325 µM) of the same compound?
A: 0.592

Q: And the relative viability ([3]; first compound 2 µM)?
A: 0.586

Q: And the relative viability ([3]; first compound 6.325 µM)?
A: 0.519

Q: And the relative viability ([3]; first compound 20 µM)?
A: 0.0696

Q: And the relative viability ([4]; first compound 0.2 µM)?
A: 0.727

Q: What about the relative viability ([4]; first compound 0.6325 µM) of the same compound?
A: 0.62

Q: And the relative viability ([4]; first compound 2 µM)?
A: 0.432

Q: And the relative viability ([4]; first compound 6.325 µM)?
A: 0.449

Q: And the relative viability ([4]; first compound 20 µM)?
A: 0.272

Q: What about the relative viability ([5]; first compound 0.2 µM) of the same compound?
A: 0.651

Q: And the relative viability ([5]; first compound 0.6325 µM)?
A: 0.611

Q: And the relative viability ([5]; first compound 2 µM)?
A: 0.484

Q: And the relative viability ([5]; first compound 6.325 µM)?
A: 0.633

Q: What about the relative viability ([5]; first compound 20 µM) of the same compound?
A: 0.462

Q: And the relative viability ([6]; first compound 0.2 µM)?
A: 0.296

Q: What about the relative viability ([6]; first compound 0.6325 µM) of the same compound?
A: 0.401

Q: What about the relative viability ([6]; first compound 6.325 µM) of the same compound?
A: 0.288

Q: And the relative viability ([6]; first compound 20 µM)?
A: 0.0656

Q: What about the relative viability ([7]; first compound 0.2 µM) of the same compound?
A: 0.385

Q: And the relative viability ([7]; first compound 0.6325 µM)?
A: 0.328

Q: And the relative viability ([7]; first compound 2 µM)?
A: 0.324

Q: And the relative viability ([7]; first compound 6.325 µM)?
A: 0.361

Q: What about the relative viability ([7]; first compound 20 µM) of the same compound?
A: 0.058

Q: And the relative viability ([8]; first compound 0.2 µM)?
A: 0.522

Q: What about the relative viability ([8]; first compound 0.6325 µM) of the same compound?
A: 0.603

Q: And the relative viability ([8]; first compound 2 µM)?
A: 0.544

Q: What about the relative viability ([8]; first compound 6.325 µM) of the same compound?
A: 0.503

Q: And the relative viability ([8]; first compound 20 µM)?
A: 0.457

Q: What about the relative viability ([9]; first compound 0.2 µM) of the same compound?
A: 0.165

Q: What about the relative viability ([9]; first compound 0.6325 µM) of the same compound?
A: 0.173

Q: What about the relative viability ([9]; first compound 2 µM) of the same compound?
A: 0.204

Q: And the relative viability ([9]; first compound 6.325 µM)?
A: 0.148

Q: And the relative viability ([9]; first compound 20 µM)?
A: 0.0121

Q: For `COCC1(CO)C(=O)C2CCN1CC2` (stereo not drawn) [PRIMA-1MET] + NC(=O)Nc1cc(-c2cccc(F)c2)sc1C(=O)N[C@H]1CCCNC1 [AZD7762] (partner 0.2 µM), which relative viability ([1]; first compound 0.2 µM) is on record?
A: 0.476

Q: And the relative viability ([1]; first compound 2 µM)?
A: 0.726

Q: And the relative viability ([1]; first compound 6.325 µM)?
A: 0.783

Q: And the relative viability ([1]; first compound 20 µM)?
A: 0.716

Q: What about the relative viability ([2]; first compound 0.2 µM) of the same compound?
A: 1.24

Q: And the relative viability ([2]; first compound 0.6325 µM)?
A: 1

Q: And the relative viability ([2]; first compound 2 µM)?
A: 0.884

Q: And the relative viability ([2]; first compound 6.325 µM)?
A: 1.22

Q: What about the relative viability ([2]; first compound 20 µM) of the same compound?
A: 0.232

Q: And the relative viability ([3]; first compound 0.2 µM)?
A: 0.603

Q: And the relative viability ([3]; first compound 2 µM)?
A: 0.6

Q: And the relative viability ([3]; first compound 6.325 µM)?
A: 0.777

Q: And the relative viability ([3]; first compound 20 µM)?
A: 0.601

Q: And the relative viability ([4]; first compound 0.2 µM)?
A: 1.09

Q: And the relative viability ([4]; first compound 0.6325 µM)?
A: 1.1

Q: And the relative viability ([4]; first compound 2 µM)?
A: 0.588

Q: What about the relative viability ([4]; first compound 6.325 µM) of the same compound?
A: 0.942

Q: And the relative viability ([4]; first compound 20 µM)?
A: 0.176

Q: What about the relative viability ([10]; first compound 0.6325 µM) of the same compound?
A: 0.158

Q: And the relative viability ([10]; first compound 6.325 µM)?
A: 0.121

Q: What about the relative viability ([10]; first compound 20 µM) of the same compound?
A: 0.0239

Q: And the relative viability ([5]; first compound 0.2 µM)?
A: 0.3

Q: What about the relative viability ([5]; first compound 0.6325 µM) of the same compound?
A: 0.186

Q: And the relative viability ([5]; first compound 2 µM)?
A: 0.223

Q: What about the relative viability ([5]; first compound 6.325 µM) of the same compound?
A: 0.281

Q: And the relative viability ([5]; first compound 20 µM)?
A: 0.168

Q: And the relative viability ([11]; first compound 0.2 µM)?
A: 0.729

Q: And the relative viability ([11]; first compound 2 µM)?
A: 0.655

Q: What about the relative viability ([11]; first compound 20 µM) of the same compound?
A: 0.663

Q: What about the relative viability ([6]; first compound 0.2 µM) of the same compound?
A: 0.753

Q: What about the relative viability ([6]; first compound 0.6325 µM) of the same compound?
A: 0.748

Q: What about the relative viability ([6]; first compound 6.325 µM) of the same compound?
A: 0.676

Q: What about the relative viability ([6]; first compound 20 µM) of the same compound?
A: 0.0739

Q: And the relative viability ([7]; first compound 0.2 µM)?
A: 0.52

Q: What about the relative viability ([7]; first compound 0.6325 µM) of the same compound?
A: 0.538

Q: What about the relative viability ([7]; first compound 2 µM) of the same compound?
A: 0.685

Q: And the relative viability ([7]; first compound 6.325 µM)?
A: 0.452

Q: And the relative viability ([7]; first compound 20 µM)?
A: 0.0452

Q: Which relative viability ([1]; first compound 0.2 µM) does the source give for `COCC1(CO)C(=O)C2CCN1CC2` (stereo not drawn) [PRIMA-1MET] + Nc1nc2[nH]cc(CCc3ccc(C(=O)N[C@@H](CCC(=O)O)C(=O)O)cc3)c2c(=O)[nH]1 [Pemetrexed] (partner 0.2 µM) here?
A: 0.592

Q: And the relative viability ([1]; first compound 2 µM)?
A: 0.592

Q: What about the relative viability ([1]; first compound 6.325 µM) of the same compound?
A: 0.534

Q: And the relative viability ([1]; first compound 20 µM)?
A: 0.557

Q: And the relative viability ([2]; first compound 0.2 µM)?
A: 0.553

Q: What about the relative viability ([2]; first compound 0.6325 µM) of the same compound?
A: 0.481

Q: And the relative viability ([2]; first compound 2 µM)?
A: 0.531

Q: What about the relative viability ([2]; first compound 6.325 µM) of the same compound?
A: 0.495

Q: And the relative viability ([2]; first compound 20 µM)?
A: 0.176

Q: What about the relative viability ([3]; first compound 0.2 µM) of the same compound?
A: 1.18

Q: What about the relative viability ([3]; first compound 0.6325 µM) of the same compound?
A: 1.19

Q: And the relative viability ([3]; first compound 2 µM)?
A: 1.19

Q: What about the relative viability ([3]; first compound 6.325 µM) of the same compound?
A: 1.36

Q: And the relative viability ([3]; first compound 20 µM)?
A: 0.13

Q: And the relative viability ([4]; first compound 0.2 µM)?
A: 0.936

Q: And the relative viability ([4]; first compound 0.6325 µM)?
A: 0.925

Q: What about the relative viability ([4]; first compound 2 µM) of the same compound?
A: 0.549

Q: What about the relative viability ([4]; first compound 6.325 µM) of the same compound?
A: 0.862

Q: What about the relative viability ([4]; first compound 20 µM) of the same compound?
A: 0.165

Q: What about the relative viability ([5]; first compound 0.2 µM) of the same compound?
A: 0.187

Q: What about the relative viability ([5]; first compound 0.6325 µM) of the same compound?
A: 0.203

Q: What about the relative viability ([5]; first compound 2 µM) of the same compound?
A: 0.156

Q: What about the relative viability ([5]; first compound 6.325 µM) of the same compound?
A: 0.184

Q: What about the relative viability ([5]; first compound 20 µM) of the same compound?
A: 0.0889

Q: And the relative viability ([11]; first compound 0.2 µM)?
A: 0.72

Q: What about the relative viability ([11]; first compound 2 µM) of the same compound?
A: 0.776

Q: What about the relative viability ([11]; first compound 20 µM) of the same compound?
A: 0.637

Q: And the relative viability ([6]; first compound 0.2 µM)?
A: 1.01

Q: And the relative viability ([6]; first compound 0.6325 µM)?
A: 0.986

Q: What about the relative viability ([6]; first compound 6.325 µM) of the same compound?
A: 0.974

Q: What about the relative viability ([6]; first compound 20 µM) of the same compound?
A: 0.0844

Q: And the relative viability ([7]; first compound 0.2 µM)?
A: 0.403

Q: And the relative viability ([7]; first compound 0.6325 µM)?
A: 0.416

Q: What about the relative viability ([7]; first compound 2 µM) of the same compound?
A: 0.433

Q: What about the relative viability ([7]; first compound 6.325 µM) of the same compound?
A: 0.407

Q: And the relative viability ([7]; first compound 20 µM)?
A: 0.0543
